Data on six substances can be found in PMC7457965 (Bioorganic & Medicinal Chemistry, 2020).

Where two headings read alike, the source gives them in different places.

One series concerns DENV (New Guinea C). It is filed as cell-based, Dengue virus. To be noted: read-out: DENV EC50: effective concentration showing 50% inhibition of virus-induced CPE.
In the next series the test system is ZIKV (MR766). It is filed as cell-based, Zika virus. To be noted: read-out: ZIKV EC50.
The next series has as its system YFV (17D). It is filed as cell-based, Yellow Fever Virus. To be noted: read-out: YFV EC50.
Another series deals with human N7 (RNMT) MTase (Homo sapiens, UniProt O43148). Type of series: biochemical. To be noted: 50 µM.
Series [1] deals with Ebola (EBOV) virus. The note with it: cited from earlier work.
The next series deals with T1, DENV NS5-MTase (Dengue virus type 3, UniProt Q6YMS4).
T1 sequence (Q6YMS4 2492-2753 limits assumed): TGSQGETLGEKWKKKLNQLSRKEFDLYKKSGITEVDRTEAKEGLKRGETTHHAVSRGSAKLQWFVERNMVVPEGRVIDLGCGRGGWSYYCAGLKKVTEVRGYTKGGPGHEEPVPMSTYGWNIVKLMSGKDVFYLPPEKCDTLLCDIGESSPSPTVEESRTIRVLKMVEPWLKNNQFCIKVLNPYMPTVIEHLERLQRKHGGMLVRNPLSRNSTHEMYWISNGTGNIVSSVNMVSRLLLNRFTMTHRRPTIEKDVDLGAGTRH
Description: radioactive filter-binding 2'-O-MTase assay, DENV. Type of series: biochemical, DENV-3. The note with it: 50 µM compound.

Series [2] is described as follows: preliminary minimum tolerated dose. It is filed as in vivo.
Another series addresses ZIKV NS5-MTase (Zika virus, UniProt A0A024B7W1). Description: radioactive filter-binding 2'-O-MTase assay, ZIKV. It is filed as biochemical. To be noted: 50 µM compound.
In another series the test system is SARS. To be noted: read-out: activity against SARS; cited from earlier work.
Series [3] concerns Ebola (EBOV) virus. Type of series: cell-based. The note with it: read-out: EC50 against EBOV.

Chain of human N7 (RNMT) MTase (O43148 whole entry): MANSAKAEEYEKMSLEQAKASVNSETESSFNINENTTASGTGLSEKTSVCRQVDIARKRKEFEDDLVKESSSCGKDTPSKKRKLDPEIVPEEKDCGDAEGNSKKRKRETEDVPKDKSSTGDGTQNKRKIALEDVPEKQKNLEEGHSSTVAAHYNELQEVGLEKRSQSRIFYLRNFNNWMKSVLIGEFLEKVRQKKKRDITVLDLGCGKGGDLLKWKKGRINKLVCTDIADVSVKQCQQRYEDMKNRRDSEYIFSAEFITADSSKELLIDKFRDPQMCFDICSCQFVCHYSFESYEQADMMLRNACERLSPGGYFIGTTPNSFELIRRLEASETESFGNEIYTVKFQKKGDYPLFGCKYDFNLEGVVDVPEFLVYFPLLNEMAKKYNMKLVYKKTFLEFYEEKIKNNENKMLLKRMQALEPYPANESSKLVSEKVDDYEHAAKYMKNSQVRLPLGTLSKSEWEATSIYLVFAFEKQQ
Chain of ZIKV NS5-MTase (A0A024B7W1 2521-2785 limits assumed): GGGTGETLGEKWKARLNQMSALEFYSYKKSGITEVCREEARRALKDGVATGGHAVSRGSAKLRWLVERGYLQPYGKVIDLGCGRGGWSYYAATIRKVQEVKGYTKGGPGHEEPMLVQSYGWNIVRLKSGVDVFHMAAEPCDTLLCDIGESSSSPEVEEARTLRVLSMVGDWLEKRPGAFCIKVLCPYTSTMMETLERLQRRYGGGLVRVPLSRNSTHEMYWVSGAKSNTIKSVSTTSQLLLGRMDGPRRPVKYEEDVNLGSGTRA

As for “2-((4-(2,4-dimethoxypyrimidine-5-yl)-1H-imidazol-1-yl) methoxy)ethan-1-ol [Compound 2]”, the EC50 in the series on DENV (New Guinea C) is greater than 50 µM; with ZIKV (MR766), greater than 76 µM; in the series with YFV (17D), greater than 58 µM.

Consider “2-((4-(2-amino-4-methoxypyrimidin-5-yl)-1H-imidazol-1-yl) methoxy)ethan-1-ol [Compound 1]”, for which the “inhibition of human N7 MTase activity” value against human N7 (RNMT) MTase was “did not exhibit a significant inhibitory effect”. In addition, the EC50 in the series with DENV (New Guinea C) is 0.057 µM; with Ebola (EBOV) virus [1] (read-out: EC50 against Ebola (EBOV) virus), 2.2 ± 0.3 µM; in the series on YFV (17D), 0.37 µM. Further, the “activity against Ebola (EBOV) virus” value in the series on Ebola (EBOV) virus [1] is listed as “active”. The “Percent inhibition of DENV MTase” value at DENV NS5-MTase is “did not exhibit a significant inhibitory effect”. In addition, the “minimum tolerated dose (MTD) studies: no toxicity up to” value in series [2] is recorded as no less than 250 mgs/kg. In addition, on ZIKV NS5-MTase, the “Percent inhibition of ZIKV MTase” value was “did not exhibit a significant inhibitory effect”.

As for “2-((4-(2-amino-4-methoxypyrimidin-5-yl)-1H-imidazol-1-yl)methoxy)ethyl acetate [Compound 1-Ac]”, the EC50 was 11.9 µM with SARS, 6.1 µM in the series on DENV (New Guinea C), greater than 100 µM with ZIKV (MR766) and greater than 57 µM in the series with YFV (17D). Besides, the “activity against Ebola (EBOV) virus” value with Ebola (EBOV) virus [1] is given as “active”.

As for “2-((4–2,4-dimethoxypyrimidin-5-yl)-1H-imidazol-1-yl)methoxy) ethyl acetate [Compound 2-Ac]”, the EC50 in the series on DENV (New Guinea C) is 19 µM; in the series on Ebola (EBOV) virus [3], 8.2 ± 1.8 µM; in the series with YFV (17D), greater than 58 µM.

Take “2-ethylbutyl ((2-((4-(2,4-dimethoxypyrimidin-5-yl)-1H-imidazol-1-yl)methoxy)ethoxy)-(phenoxy)-phosphoryl)alaninate [Compound 2-MG]”: the values for the EC50 in the series with DENV (New Guinea C), in the series with ZIKV (MR766) and in the series with YFV (17D) were greater than 53 µM, greater than 56 µM and greater than 53 µM, respectively.

With “2-ethylbutyl((2-((4-(2-amino-4-methoxypyrimidin-5-yl)-1H-imidazol-1-yl)methoxy)-ethoxy)-(phenoxy)phosphoryl)alaninate [Compound 1-MG]”, the EC50 in the series with DENV (New Guinea C) was greater than 57 µM; in the series with ZIKV (MR766), greater than 31 µM; in the series on YFV (17D), greater than 55 µM. In addition, the “activity against Ebola (EBOV) virus” value in the series on Ebola (EBOV) virus [1] is reported as “active”.
